Experimental data taken from patent US20070042037A1, “Pharmaceutical composition containing levodopa and carbidopa” (priority 2003, published 2007).

What was measured:
[1] = Dissolution test, continuous-flow dissolution chamber, in vitro release; format: physicochemical; details: pH 1.1 artificial gastric juice, 25 ml/min, 37° C., mean of 6 measurements
Method: Six samples of a 250 mg preparation (50+200) were tested using a solution at pH 1.1 (artificial gastric juice) in a continuous-flow dissolution chamber (25 ml/min, 37° C.). The following percentages of release during the 24 hours were obtained (each value is the mean of 6 measurements): […]

[2] = in vivo; cited from earlier work
[3] = 3rd hour, 250 mg preparation (50 mg carbidopa+200 mg levodopa, ethylcellulose-coated granules)
[4] = 6th hour, 250 mg preparation (50+200)
[5] = 9th hour, 250 mg preparation (50+200)
[6] = 12th hour, 250 mg preparation (50+200)
[7] = 24th hour, 250 mg preparation (50+200)

Row | Structure (SMILES) | In vitro release, % released average [1, 3] | In vitro release, % released average [1, 4] | In vitro release, % released average [1, 5] | In vitro release, % released average [1, 6] | In vitro release, % released average [1, 7] | Time to attain the maximum plasmatic concentration [2]
1 | C[C@@](Cc1ccc(O)c(O)c1)(NN)C(=O)O [Carbidopa, carbidopa] | 26% | 39% | 51% | 63% | 89% | –
2 | N[C@@H](Cc1ccc(O)c(O)c1)C(=O)O [Levodopa, levodopa] | 22% | 43% | 59% | 68% | 90% | 1 to 2 h
